# Target: T1, Nav1.7 (or SCN9A) channel (Homo sapiens, UniProt Q15858)
# T1 construct: expressed in transfected cells
# Experiment: Nav1.7 PatchXpress 7000 automated electrophysiology assay (HEK cells stably expressing hSCN9A)
# Assay type: cell-based
# Settings: voltage-clamped at V1/2 of inactivation, read-out: Nav1.7 EIC50
# Experimental: The ability of the compounds of formula (I) to block the Nav1.7 (or SCN9A) channel was measured using the assays described below.
# Human Embryonic Kidney (HEK) cells were transfected with an hSCN9A construct using lipofectamine reagent (Invitrogen), using standard techniques. Cells stably expressing the hSCN9A constructs were identified by their resistance to G-418 (400 μg/ml). Clones were screened for expression using the whole-cell voltage-clamp technique.
# HEK cells stably transfected with hSCN9A were maintained in DMEM medium supplemented with 10% heat-inactivated fetal bovine serum and 400 μg/ml G-418 in an incubator at 37° C. with a humidified atmosphere of 10% CO2. For HTS, cells were harvested from flasks by trypsinization and replated in an appropriate multi-well plate (typically 96 or 384 wells/plate) such that confluence would be achieved within 24 hours of plating. For electrophysiological studies, cells were removed from the culture flask by brief trypsinization and re-plated at low density onto glass cover slips. Cells were typically used for electrophysiological experiments within 24 to 72 hours after plating.
# Cover slips containing HEK cells expressing hSCN9A were placed in a bath on the stage of an inverted microscope and perfused (approximately 1 ml/minutes) with extracellular solution of the following composition: 138 mM NaCl, 2 mM CaCl2, 5.4 mM KCl, 1 mM MgCl2, 10 mM glucose, and 10 mM HEPES, pH 7.4, with NaOH. […] The osmolarity of the extracellular and intracellular solutions was 300 mOsm/kg and 295 mOsm/kg, respectively. All recordings were made at room temperature (22-24° C.) using AXOPATCH 200B amplifiers and PCLAMP software (Axon Instruments, Burlingame, Calif.).
# HEK cells stably transfected with hSCN9A were viewed under Hoffman contrast optics and placed in front of an array of flow pipes emitting either control or compound-containing extracellular solutions. All compounds were dissolved in dimethyl sulfoxide to make 10 mM stock solutions, which were then diluted into extracellular solution to attain the final concentrations desired. […] The voltage-dependence of inactivation was determined by applying a series of depolarizing prepulses (8 sec long in 10 mV increments) from a negative holding potential. The voltage was then immediately stepped to 0 mV to assess the magnitude of the sodium current. Currents elicited at 0 mV were plotted as a function of prepulse potential to allow estimation of the voltage at which 50% of the channels were inactivated (midpoint of inactivation or V1/2). Compounds were tested for their ability to inhibit hSCN9A sodium channels by activating the channel with a 20 msec voltage step to 0 mV following an 8 second conditioning prepulse to the empirically determined V1/2. Compound effect (% inhibition) was determined by difference in current amplitude before and after application of test compounds. For ease of comparison, “estimated IC-50” (EIC50) values were calculated from single point electrophysiology data by the following equation, (tested concentration, uM)×(100-% inhibition/% inhibition). Inhibition values <20% and >80% were excluded from the calculation.
# Electrophysiological assays were conducted with PatchXpress 7000 hardware and associated software (Molecular Devices Corp). All assay buffers and solutions were identical to those used in conventional whole-cell voltage clamp experiments described above. hSCN9A cells were grown as above to 50%-80% confluency and harvested by trypsinization. Trypsinized cells were washed and resuspended in extracellular buffer at a concentration of 1×10^6 cells/ml. The onboard liquid handling facility of the PatchXpress was used for dispensing cells and application of test compounds. Determination of the voltage midpoint of inactivation was as described for conventional whole-cell recordings. Cells were then voltage-clamped to the empirically determined V1/2 and current was activated by a 20 msec voltage step to 0 mV. […]
# T1 sequence (Q15858 whole entry): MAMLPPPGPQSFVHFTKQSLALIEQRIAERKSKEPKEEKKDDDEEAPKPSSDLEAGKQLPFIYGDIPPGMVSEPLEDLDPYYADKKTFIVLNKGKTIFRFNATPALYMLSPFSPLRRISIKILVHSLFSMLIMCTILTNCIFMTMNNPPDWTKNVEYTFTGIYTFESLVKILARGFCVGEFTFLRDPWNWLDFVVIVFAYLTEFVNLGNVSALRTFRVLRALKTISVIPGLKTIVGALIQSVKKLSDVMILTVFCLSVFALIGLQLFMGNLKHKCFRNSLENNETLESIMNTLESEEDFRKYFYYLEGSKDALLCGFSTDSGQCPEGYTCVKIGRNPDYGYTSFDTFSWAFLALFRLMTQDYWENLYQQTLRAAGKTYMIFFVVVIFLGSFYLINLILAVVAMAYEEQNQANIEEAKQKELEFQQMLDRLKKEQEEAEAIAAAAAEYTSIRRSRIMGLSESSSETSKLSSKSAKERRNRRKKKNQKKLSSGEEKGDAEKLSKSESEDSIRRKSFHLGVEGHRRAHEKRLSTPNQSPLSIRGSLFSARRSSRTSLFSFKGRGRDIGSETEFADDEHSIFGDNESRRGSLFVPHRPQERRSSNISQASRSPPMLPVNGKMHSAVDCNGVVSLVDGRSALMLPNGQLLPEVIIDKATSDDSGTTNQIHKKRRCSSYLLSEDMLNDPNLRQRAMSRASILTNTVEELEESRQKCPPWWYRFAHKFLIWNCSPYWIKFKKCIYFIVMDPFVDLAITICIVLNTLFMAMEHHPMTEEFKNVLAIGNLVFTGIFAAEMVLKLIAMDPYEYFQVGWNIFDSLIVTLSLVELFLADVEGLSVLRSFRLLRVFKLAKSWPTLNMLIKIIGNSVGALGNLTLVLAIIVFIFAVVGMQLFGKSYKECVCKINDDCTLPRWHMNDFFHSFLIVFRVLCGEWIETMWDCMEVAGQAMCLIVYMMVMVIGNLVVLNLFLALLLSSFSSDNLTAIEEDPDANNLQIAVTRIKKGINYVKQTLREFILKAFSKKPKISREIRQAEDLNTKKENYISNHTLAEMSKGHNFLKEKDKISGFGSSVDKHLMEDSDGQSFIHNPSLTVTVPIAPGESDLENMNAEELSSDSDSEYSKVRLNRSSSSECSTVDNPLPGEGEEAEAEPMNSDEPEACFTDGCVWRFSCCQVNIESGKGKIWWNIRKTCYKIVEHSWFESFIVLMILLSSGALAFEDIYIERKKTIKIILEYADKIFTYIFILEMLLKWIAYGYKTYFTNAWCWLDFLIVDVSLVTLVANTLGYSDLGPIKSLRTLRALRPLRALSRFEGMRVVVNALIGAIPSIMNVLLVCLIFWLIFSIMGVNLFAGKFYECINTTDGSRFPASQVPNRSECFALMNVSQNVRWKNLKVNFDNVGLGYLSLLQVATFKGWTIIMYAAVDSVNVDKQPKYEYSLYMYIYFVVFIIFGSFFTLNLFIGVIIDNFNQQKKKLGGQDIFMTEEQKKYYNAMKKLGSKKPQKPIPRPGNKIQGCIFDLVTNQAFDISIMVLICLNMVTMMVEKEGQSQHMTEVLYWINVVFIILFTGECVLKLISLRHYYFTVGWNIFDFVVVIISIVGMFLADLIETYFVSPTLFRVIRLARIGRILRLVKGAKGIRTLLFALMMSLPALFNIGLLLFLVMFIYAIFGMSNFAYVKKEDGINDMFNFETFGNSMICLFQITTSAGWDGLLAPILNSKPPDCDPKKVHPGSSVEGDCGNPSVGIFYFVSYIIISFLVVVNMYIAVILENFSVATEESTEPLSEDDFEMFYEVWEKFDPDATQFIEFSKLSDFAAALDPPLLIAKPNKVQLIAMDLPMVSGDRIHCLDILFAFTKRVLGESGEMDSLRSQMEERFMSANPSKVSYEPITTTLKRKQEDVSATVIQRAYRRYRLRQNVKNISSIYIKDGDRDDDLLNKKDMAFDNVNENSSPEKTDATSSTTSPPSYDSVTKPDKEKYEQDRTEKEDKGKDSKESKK
row,SMILES,IC50 [nM]
1,"CS(=O)(=O)NC(=O)c1ccc(Oc2ccc(F)cc2)c(Cl)c1 [Example 41, 3-chloro-4-(4-fluorophenoxy)-N-(methylsulfonyl)benzamide]",660
2,"CS(=O)(=O)NC(=O)c1ccc(Oc2ccc(Cl)c(C(F)(F)F)c2)c(F)c1 [Example 42, 4-[4-chloro-3-(trifluoromethyl)phenoxy]-3-fluoro-N-(methylsulfonyl)benzamide]",590
3,"CS(=O)(=O)NC(=O)c1ccc(Oc2ccc(Cl)c(C(F)(F)F)c2)cc1Cl [Example 43, 2-chloro-4-[4-chloro-3-(trifluoromethyl)phenoxy]-N-(methylsulfonyl)benzamide]",5800
4,"CS(=O)(=O)NC(=O)c1ccc(Oc2ccc(Cl)c(C(F)(F)F)c2)c(Cl)c1 [Example 44, 3-chloro-4-[4-chloro-3-(trifluoromethyl)phenoxy]-N-(methylsulfonyl)benzamide]",2000
5,"CS(=O)(=O)NC(=O)c1cc(F)c(Oc2ccc(Cl)c(C(F)(F)F)c2)c(F)c1 [Example 45, 4-(4-chloro-3-(trifluoromethyl)phenoxy)-3,5-difluoro-N-(methylsulfonyl)benzamide]",1100
6,"COc1cc(Cl)ccc1Oc1cc(F)c(C(=O)NS(C)(=O)=O)cc1F [Example 47, 4-(4-chloro-2-methoxyphenoxy)-2,5-difluoro-N-(methylsulfonyl)benzamide]",4000
7,"CS(=O)(=O)NC(=O)c1cc(Cl)c(Oc2ccc(Cl)c(OC(F)F)c2)cc1F [Example 48, 5-chloro-4-[4-chloro-3-(difluoromethoxy)phenoxy]-2-fluoro-N-(methylsulfonyl)benzamide]",210
8,"CS(=O)(=O)NC(=O)c1cc(F)c(Oc2ccc(Cl)c(OC(F)F)c2)cc1F [Example 49, 4-[4-chloro-3-(difluoromethoxy)phenoxy]-2,5-difluoro-N-(methylsulfonyl)benzamide]",520
9,"CS(=O)(=O)NC(=O)c1ccc(Oc2ccc(C(F)(F)F)cc2-c2ccnnc2)cc1 [Example 50, N-(methylsulfonyl)-4-(2-(pyridazin-4-yl)-4-(trifluoromethyl)phenoxy)benzamide]",> 3000
10,"CS(=O)(=O)NC(=O)c1cc(Cl)c(Oc2ccc(OC(F)F)c(Cl)c2)cc1F [Example 51, 5-chloro-4-[3-chloro-4-(difluoromethoxy)phenoxy]-2-fluoro-N-(methylsulfonyl)benzamide]",260
11,"COc1cc(Cl)ccc1Oc1cc(F)c(C(=O)NS(C)(=O)=O)cc1Cl [Example 52, 5-chloro-4-(4-chloro-2-methoxyphenoxy)-2-fluoro-N-(methylsulfonyl)benzamide]",470
12,"CS(=O)(=O)NC(=O)c1cc(Cl)c(Oc2ccc(Cl)cc2OC(F)(F)F)cc1F [Example 53, 5-chloro-4-[4-chloro-2-(trifluoromethoxy)phenoxy]-2-fluoro-N-(methylsulfonyl)benzamide]",63
13,"COc1ccc(Cl)cc1Oc1cc(F)c(C(=O)NS(C)(=O)=O)cc1Cl [Example 54, 5-chloro-4-(5-chloro-2-methoxyphenoxy)-2-fluoro-N-(methylsulfonyl)benzamide]",2300
14,"CS(=O)(=O)NC(=O)c1cc(F)c(Oc2ccc(OC(F)(F)F)c(Cl)c2)cc1F [Example 55, 4-(3-chloro-4-(trifluoromethoxy)phenoxy)-2,5-difluoro-N-(methylsulfonyl)benzamide]",340
15,"CS(=O)(=O)NC(=O)c1cc(F)c(Oc2ccc(Cl)c(OC(F)(F)F)c2)cc1F [Example 56, 4-(4-chloro-3-(trifluoromethoxy)phenoxy)-2,5-difluoro-N-(methylsulfonyl)benzamide]",200
16,"O=C(NS(=O)(=O)c1ccccc1)c1cc(F)c(Oc2ccc(Cl)c(C(F)(F)F)c2)cc1F [Example 57, 4-[4-chloro-3-(trifluoromethyl)phenoxy]-2,5-difluoro-N-(phenylsulfonyl)benzamide]",920

row,SMILES,IC50 [nM]
1,"CCC(C)S(=O)(=O)NC(=O)c1cc(F)c(Oc2ccc(Cl)c(C(F)(F)F)c2)cc1F (centres unmarked) [Example 58, N-(sec-butylsulfonyl)-4-[4-chloro-3-(trifluoromethyl)phenoxy]-2,5-difluorobenzamide]",430
2,"COc1cc(C(=O)NS(C)(=O)=O)ccc1Oc1ccc(Cl)c(C(F)(F)F)c1 [Example 59, 4-[4-chloro-3-(trifluoromethyl)phenoxy]-3-methoxy-N-(methylsulfonyl)benzamide]",4000
3,"COc1cc(Oc2ccc(Cl)c(C(F)(F)F)c2)c(F)cc1C(=O)NS(C)(=O)=O [Example 60, 4-[4-chloro-3-(trifluoromethyl)phenoxy]-5-fluoro-2-methoxy-N-(methylsulfonyl)benzamide]",33000
4,"COc1cc(Cl)ccc1Oc1cc(OC)c(C(=O)NS(C)(=O)=O)cc1F [Example 61, 4-(4-chloro-2-methoxyphenoxy)-5-fluoro-2-methoxy-N-(methylsulfonyl)benzamide]",> 10000
5,"CS(=O)(=O)NC(=O)c1ccc(Oc2ccc(Cl)c(C(F)(F)F)c2)c(C#N)c1 [Example 62, 4-[4-chloro-3-(trifluoromethyl)phenoxy]-3-cyano-N-(methylsulfonyl)benzamide]",890
6,"COc1cc(Cl)ccc1Oc1ccc(C(=O)NS(C)(=O)=O)cc1C#N [Example 63, 4-(4-chloro-2-methoxyphenoxy)-3-cyano-N-(methylsulfonyl)benzamide]",> 3000
7,"COc1cc(Cl)ccc1Oc1ccc(C(=O)NS(C)(=O)=O)c(F)c1 [Example 64, 4-(4-chloro-2-methoxyphenoxy)-2-fluoro-N-(methylsulfonyl)benzamide]",> 3000
8,"COc1cc(Cl)ccc1Oc1ccc(C(=O)NS(C)(=O)=O)cc1F [Example 65, 4-(4-chloro-2-methoxyphenoxy)-3-fluoro-N-(methylsulfonyl)benzamide]",> 1000
9,"COc1ccc(Cl)cc1Oc1cc(F)c(C(=O)NS(C)(=O)=O)cc1F [Example 67, 4-(5-chloro-2-methoxyphenoxy)-2,5-difluoro-N-(methylsulfonyl)benzamide]",5000
10,"COc1cc(F)ccc1Oc1cc(F)c(C(=O)NS(C)(=O)=O)cc1F [Example 69, 2,5-difluoro-4-(4-fluoro-2-methoxyphenoxy)-N-(methylsulfonyl)benzamide]",6200
11,"COc1cc(Cl)c(Cl)cc1Oc1cc(F)c(C(=O)NS(C)(=O)=O)cc1F [Example 70, 4-(4,5-dichloro-2-methoxyphenoxy)-2,5-difluoro-N-(methylsulfonyl)benzamide]",2800
12,"COc1cc(OC(F)(F)F)ccc1Oc1cc(F)c(C(=O)NS(C)(=O)=O)cc1F [Example 72, 2,5-difluoro-4-[2-methoxy-4-(trifluoromethoxy)phenoxy]-N-(methylsulfonyl)benzamide]",> 1000
13,"CS(=O)(=O)NC(=O)c1cc(F)c(Oc2ccc(Cl)cc2OC(F)(F)F)cc1F [Example 73, 4-[4-chloro-2-(trifluoromethoxy)phenoxy]-2,5-difluoro-N-(methylsulfonyl)benzamide]",710
14,"COc1cc(C(F)(F)F)ccc1Oc1cc(F)c(C(=O)NS(C)(=O)=O)cc1F [Example 74, 2,5-difluoro-4-(2-methoxy-4-(trifluoromethyl)phenoxy)-N-(methylsulfonyl)benzamide]",> 1000
15,"CS(=O)(=O)NC(=O)c1cc(F)c(Oc2ccc(Cl)c(C(F)(F)F)c2)cc1F [Example 75, 4-(4-chloro-3-(trifluoromethyl)phenoxy)-2,5-difluoro-N-(methylsulfonyl)benzamide]",450
16,"CC(C)S(=O)(=O)NC(=O)c1ccc(Oc2ccc(Cl)c(C(F)(F)F)c2)cc1 [Example 76, 4-(4-chloro-3-(trifluoromethyl)phenoxy)-N-(isopropylsulfonyl)benzamide]",850

# — patent publication US8685977B2, “Chemical compounds” (Pfizer Limited, priority 2010, dated 2014)
